Peptide text beside a SMILES is read from it.
Key:
hCMEC/D3 cell line = assay: Comparative analysis of cell permeation effect through flow cytometry; assay type: cell-based, human; conditions: 10 μM, 2 hours, p<0.0001, FIG. 4
Description: First, with respect to the transpep-1-FITC and angiopep-2-FITC prepared in Example 1-2, an amount of fluorescence inflow into a single cell was identified and quantified through flow cytometry. Specifically, an hCMEC/D3 cell line was aliquoted at 15,000 cells/well using an EGM culture medium containing 2% bovine calf serum (BCS), and 24 hours later, cells were treated with each of the two peptides at a concentration of 10 μM, and then were incubated for 2 hours at 37° C., under CO2 conditions. Thereafter, the cells were washed with 1×PBS, and then were separated from the bottom of the plate by incubating for 3 minutes after 1.1% trypsinase-EDTA (TE) was added, and then an EGM cell culture solution of about 3 times the amount of TE was added, and the sample was centrifuged at 100 rpm for 5 minutes. Next, the supernatant was removed by suction, and the cells were resuspended in 250 μl of 1×PBS, and then transferred to a BD Falcon 12×75 mm Tube with Cell Strainer Cap, and inflow of fluorescence according to each peptide was analyzed by flow cytometry.

[1] = tested on: hCMEC/D3 cells, which are human blood-brain barrier cells; assay: In vitro cell permeability analysis (FITC fluorescence imaging, Cytation 5); assay type: cell-based; conditions: peptides linked to FITC, 4 μM, 2 hours, FIG. 1
Description: The present inventors performed in vitro cell permeability analysis on a total of 12 candidate peptides synthesized in Example 1 above. Specifically, hCMEC/D3 cells, which are human blood-brain barrier cells, were seeded in a 96-well plate at 18,000 cells/well, and incubated overnight at 37° C. under CO2 conditions in a endothelial cell growth medium (EGM), which is an […], until the cells reached 80% to 90% of the plate area. Subsequently, the 12 candidate peptides linked to FITC prepared in Example 1-2 and FITC alone, a negative control, were diluted in the medium to 4 μM to prepare an amount to be treated by 100 μl per well. Subsequently, the culture solution was removed from the cell culture plate by suction, and the peptide was diluted and treated with the solution prepared in advance, and then cultured at 37° C. under CO2 conditions for 2 hours. […] After incubation, DAPI and GFP fluorescence were image read by using a Cytation 5 equipment, and the cell nucleus was parcellated with DAPI by image processing. Subsequently, a value of 20 μM of FITC around the cell nucleus was measured, divided by DAPI to obtain a mean-FITC value, and the value was corrected with a value of FITC experimental group, a negative control group, to calculate permeability in the blood-brain barrier cells. […]

C57BL/6 mice = assay: Comparative analysis of in vivo blood-brain barrier (BBB) permeability (two-photon microscopy); design: species or system mouse; conditions: 15 mg/kg tail vein, imaging for 90 minutes; FIG. 5A-5F
Description: Specifically, in order to perform in vivo real-time imaging using a two photon microscopy, operations to install a cranial window were performed in living mice (C57BL/6). Before making the cranial window, inhalation anesthesia was induced with 3% isoflurane in the mice, and the body temperature of the mice was maintained at 36.5° C. to 37.5° C. by using a heating pad. After induction of anesthesia, the concentration of isoflurane was adjusted to 1.5% to maintain anesthesia. In addition, to confirm the degree of maintenance of anesthesia, heart rate and SpO2 were confirmed in real time. Afterwards, craniotomy was performed by using a dental drill in order that the cranial window has a diameter of 3 mm at the skull coordinates of ML, +2.5 mm, and AP, −1.5 mm. After the skull was removed by craniotomy, the brain was covered with a cover glass having a diameter of 4 mm, and the cover glass was adhered by using a cyanoacrylic bond. Next, a head frame, capable of fixing the mouse's head under a two-photon microscope, was attached so that the cover glass would come to the center. After a first bonding of the cover glass and the frame by using the bond, a second bonding was performed and all exposed skulls were covered from the border of the cover glass with dental resin so that imaging could be performed by using a water immersion lens. […]

Compound | fluorescence intensity (inflow into single cell) compared to angiopep-2-FITC (hCMEC/D3 cell line) | cell permeability (FITC fluorescence) [1] | amount delivered to the extravascular area compared to angiopep-2-FITC (C57BL/6 mice) | fluorescence in the intravascular region (in vivo stability) compared to angiopep-2-FITC (C57BL/6 mice)
GHHERLKSDEWSVTSG (transpep-1) | significantly higher | confirmed to have cell permeability | – | –
CC(C)C[C@H](NC(=O)[C@H](CCCNC(=N)N)NC(=O)[C@H](CCC(=O)O)NC(=O)[C@H](Cc1c[nH]cn1)NC(=O)[C@H](Cc1c[nH]cn1)NC(=O)CNC(=S)Nc1ccc2c(c1)C(=O)OC21c2ccc(O)cc2Oc2cc(O)ccc21)C(=O)N[C@@H](CCCCN)C(=O)N[C@@H](CO)C(=O)N[C@@H](CC(=O)O)C(=O)N[C@@H](CCC(=O)O)C(=O)N[C@@H](Cc1c[nH]c2ccccc12)C(=O)N[C@@H](CO)C(=O)N[C@H](C(=O)N[C@H](C(=O)N[C@@H](CO)C(=O)NCC(=O)O)[C@@H](C)O)C(C)C [transpep-1-FITC] (HELM PEPTIDE1{[O=C1OC2(c3ccc(O)cc3Oc3cc(O)ccc32)c2ccc(NC(=S)[*:2])cc21].G.H.H.E.R.L.K.S.D.E.W.S.V.T.S.G}$$$$V2.0) | – | – | greater | higher in vivo stability
